The conditions of data set [1]: human, 10 µM.
The conditions of data set [2]: cited from earlier work.
A further data set deals with human cardiomyocytes. Nature of the data set: Human cardiomyocyte function (video-based contractility analysis). It is filed as cell-based. As to conditions: 50 µM.
Data set [3] deals with HBV. Briefly: Antiviral efficacy in nude mice bearing HBV transfected AD38 xenografts. Type of data set: in vivo. As to conditions: for difference in T/V ratios (HBV titers) versus no-drug / placebo control group: day 45.
The conditions of data set [4]: cynomolgus monkey plasma (1 donor), 10 µM.
For data set [5] the following is noted: 2% FBS (used to measure potency in vitro), 10 µM.
The conditions of data set [6]: Centrifree ultrafiltration device.
In data set [7] the test system is HBV. Further details: method as in earlier work. As to conditions: 2% FBS, cited from earlier work.
Details of data set [8]: method as in earlier work. Particulars: CD-1 mice, cited from earlier work.
For data set [9] the following is noted: humanized mice, 60 mg/kg per day PO for 10 weeks; cited from earlier work.
A short description of data set [10]: Single-dose plasma pharmacokinetics in male cynomolgus monkeys. Particulars: for AUCtotal: mean n = 3, extrapolated; for t1/2: mean n = 3, terminal.
Where [11] appears, read: eight of the ten mice, GLP-26 55 mg/kg 3 times per week via feeding tube, to day 45.
Setting [12] is: 1 mg/kg IV infusion, mean n = 3.

Values joined by “and” are separate entries in the source; they are usually repeats but may differ in a detail not shown here. Equal values may be shown once. “Also recorded” adds a separate entry of the source. Read-outs that look alike come from different tables or passages of the source.

What is called EC50 is the concentration needed to bring the measured effect to its halfway point. As usually defined, the EC90 is the point of the concentration-response curve where the effect stands at 90%. In general, Cmax refers to the highest concentration seen after dosing. What is called MRT is the average time that molecules of a dose stay in the body. Usually Tmax stands for the time at which the peak concentration occurs.

In the case of `Nc1nc(=O)n([C@@H]2CS[C@H](CO)O2)cc1F` [emtricitabine], the “percent bound in plasma” value in data set [1] is on record as 0.8%. Moreover, the “percent bound (reported)” value in [2] is < 4%.
In the case of `COc1nc(N)nc2c1ncn2[C@@H]1O[C@H](COP(=O)(N[C@@H](C)C(=O)OCC(C)(C)C)Oc2cccc3ccccc23)[C@@H](O)[C@@]1(C)O` (stereo partly drawn) [BMS-986094], in the data set with human cardiomyocytes, the “resumption of cardiomyocyte beating” value is on record as “resumed after 8 h with an unstable rhythm” and the “time until cardiomyocyte beating stopped” value is reported as ≤ 2 h.
Take `Cc1cccc(C)c1OCC(=O)N[C@@H](Cc1ccccc1)[C@@H](O)C[C@H](Cc1ccccc1)NC(=O)[C@H](C(C)C)N1CCCNC1=O` [lopinavir]: the “percent bound in plasma” value in data set [1] stood at 97.9%.
Consider `C=C1[C@H](CO)[C@@H](O)C[C@@H]1n1cnc2c(=O)[nH]c(N)nc21` [ETV, entecavir, reference compound], for which the “difference in T/V ratios (HBV titers) versus no-drug / placebo control group” value with HBV [3] is given as 3 log10.
Take `C#CCNC(=O)C(=O)c1c(C)c(C(=O)Nc2ccc(F)c(F)c2)n(C)c1C` [GLP-26]: in the data set with HBV [3], the “difference in T/V ratios (HBV titers) versus no-drug / placebo control group” value worked out at 2.5 log10. For the same compound, in the data set with HBV [3] (setting [11]), the “mean rebound in T/V” value is 13.8 fold and the “mean rebound in T/V (log10)” value is listed as 1.14 log10. Further, the “percent bound in plasma” value in [4] was found to be 86.7%. Further, the “percent bound in 2% FBS” value in data set [5] came to 17.9%. The non-specific adsorption entry in [6] is on record as “approximately 2.6%”. Further, in the data set with HBV [7] (converted from nM), the “in vitro EC50 versus HBV” value is ~ 1.1 ng/mL and the “in vitro EC90 versus HBV” value is on record as ~ 11 ng/mL. In addition, the EC50 with HBV [7] (read-out: in vitro EC50 versus HBV) was 3 nM. In addition, the EC90 in the data set on HBV [7] (read-out: in vitro EC90 versus HBV) was 30 nM. For the same compound, in data set [8] (IV 15 mg/kg), the “terminal t1/2” value was 1.6 h. The PO bioavailability in [8] (PO 30 mg/kg, IV 15 mg/kg) is 61%. Moreover, the “terminal t1/2” value in data set [8] (PO 30 mg/kg) was > 6 h. Also, the tolerability result in [9] is recorded as “safely administered”. In data set [10] (setting [12]), this compound yielded an AUMC of 1058 ng·mL^−1·h^2, a CL of 1.106 L·h/kg, a Cmax of 2513 ng/mL and a mean residence time (MRT) of 1.2 h. Also, in data set [10] (setting [12]), the Tmax was 0.40 h and the Vss is given as 1.065 Lkg^−1. In data set [10] (1 mg/kg IV infusion), the AUCtotal is 986.6 ± 316.5 ng·h/mL and 986.6 ng·h/mL; the t1/2 turned out to be 0.77 h. Also, in data set [10] (5 mg/kg PO), the “Cmax relative to in vitro EC50 versus HBV” value is recorded as ~ 30 times; the AUCtotal was 1660 ng·h/mL and 1660 ± 530 ng·h/mL; the t1/2 is 2.4 h and 2.44 h. For the same compound, in data set [10] (5 mg/kg PO, mean n = 3), the AUMC was found to be 7435 ng·mL^−1·h^2, the Cmax was 380.7 ng/mL, the MRT came to 4.19 h and the time to peak (Tmax) was found to be 0.67 h. Further, the “signs of toxicity in monkeys” value in [10] (single IV (1 mg/kg) or PO (5 mg/kg) doses) is “appeared healthy prior to dosing and throughout the duration of the study; also recorded: No signs of toxicity were observed”.

(Values after publication PMC7830897 (Viruses, 2021).)
